# Results taken from patent publication US8084479B2, “Thiazole compounds and methods of use” (Amgen Inc., priority 2006, dated 2011).
# Counter-ions that a name gives are not always drawn.
# Target: PKBα (Homo sapiens, UniProt P31749)
# Assay: PKB kinase assay (P33-labeled ATP, peptide substrate, filter plate)
# Assay type: biochemical
# Conditions: PKBα enzyme (full length or kinase domain with pleckstrin domain deleted)
# Description: The kinase assay for evaluating PKB activity comprises active PKB enzymes, a PKB specific substrate, and P^33-labeled ATP. […] The phosphorylated substrate was captured by a phosphocellulose membrane filter plate (MLLIPORE) and measured by a Wallac Microbeta liquid scintillation counter (Perkin Elmer).
# Sequence of PKBα (P31749 118-480 limits assumed): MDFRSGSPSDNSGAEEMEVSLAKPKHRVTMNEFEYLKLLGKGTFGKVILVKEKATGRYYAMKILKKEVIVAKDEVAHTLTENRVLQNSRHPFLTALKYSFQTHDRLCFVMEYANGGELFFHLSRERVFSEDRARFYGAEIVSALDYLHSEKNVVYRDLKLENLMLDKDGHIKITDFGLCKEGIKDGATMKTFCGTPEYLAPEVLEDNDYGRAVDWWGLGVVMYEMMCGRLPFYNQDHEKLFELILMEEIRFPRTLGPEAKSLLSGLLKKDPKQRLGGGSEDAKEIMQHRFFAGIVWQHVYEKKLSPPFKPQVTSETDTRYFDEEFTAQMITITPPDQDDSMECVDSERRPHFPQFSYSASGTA
row,IC50,Compound
1,50 to 1000 nM,"N[C@H](CNc1ncc(-c2ccc3c(c2)/C(=C\c2cnc[nH]2)C(=O)N3)s1)Cc1c[nH]c2ccccc12 (stereo in doubt) [Example 73, (E)-3-((1H-imidazol-5-yl)methylene)-6-(2-((S)-2-amino-3-(1H-indol-3-yl)propylamino)thiazol-5-yl)indolin-2-one ditrifluoroacetates]"
2,< 50 nM,"C/C=C/[C@@H](c1ccc(C(F)(F)F)cc1)[C@H](N)CNc1ncc(-c2ccc3cnccc3c2)s1 [Example 154, N-((2S,3S,E)-2-amino-3-(4-(trifluoromethyl)phenyl)hex-4-enyl)-5-(isoquinolin-6-yl)thiazol-2-amine]"
3,< 50 nM,"CC#Cc1nc(NC[C@@H](N)Cc2ccc(C(F)(F)F)cc2)sc1-c1ccc2cnccc2c1 [Example 143, N—((S)-2-amino-3-(4-(trifluoromethyl)phenyl)propyl)-5-(isoquinolin-6-yl)-4-(prop-1-ynyl)thiazol-2-amine]"
4,< 50 nM,"C[C@@H](c1ccc(C(F)(F)F)cc1)[C@H](N)CNc1ncc(-c2ccc3c(c2)CC(=O)N3)s1 [Example 92, 5-(2-((2S,3S)-2-Amino-3-(4-(trifluoromethyl)phenyl)butylamino)thiazol-5-yl)indolin-2-one methane sulfonic acid salt]"
5,< 50 nM,"N[C@H](CNc1ncc(-c2ccc3cnccc3c2)s1)Cc1cccc(Cl)c1 [Example 66, N—((S)-2-amino-3-(3-chlorophenyl)propyl)-5-(isoquinolin-6-yl)thiazol-2-amine]"
6,1000 to 10000 nM,"Nc1n[nH]c2cc(-c3cnc(NC[C@@H](N)Cc4ccc(C(F)(F)F)cc4)s3)ccc12 [Example 52, 6-(2-((S)-2-amino-3-(4-(trifluoromethyl)phenyl)propylamino)thiazol-5-yl)-1H-indazol-3-amine]"
7,50 to 1000 nM,"COc1ccc(CC(N)CNc2ncc(-c3ccc4cnccc4c3)s2)cc1F (centres unmarked) [Example 131, N-(2-Amino-3-(3-fluoro-4-methoxyphenyl)propyl)-5-(isoquinolin-6-yl)thiazol-2-amine]"
8,50 to 1000 nM,"NC(CNc1ncc(-c2ccc3[nH]c(=O)oc3c2)s1)Cc1ccc(OC(F)(F)F)cc1 (centres unmarked) [Example 187, 6-(2-(-2-amino-3-(4-(trifluoromethoxy)phenyl)propylamino)thiazol-5-yl)benzo[d]oxazol-2(3H)-one]"
9,< 50 nM,"CNC(=O)c1nc(NC[C@@H](N)Cc2ccc(C(F)(F)F)cc2)sc1-c1ccc2cnccc2c1 [Example 120, 2-((S)-2-amino-3-(4-(trifluoromethyl)phenyl)-propylamino)-5-(isoquinolin-6-yl)-N-methylthiazole-4-carboxamide]"
10,50 to 1000 nM,"CC1C(=O)Nc2ccc(-c3cnc(NC[C@@H](N)Cc4ccc(C(F)(F)F)cc4)s3)cc21 (stereo partly drawn) [Example 47, 5-(2-((S)-2-amino-3-(4-(trifluoromethyl)phenyl)propylamino)thiazol-5-yl)-3-methylindolin-2-one]"
11,> 10000 nM,"COCc1nc(N(C[C@H](Cc2ccc(C(F)(F)F)cc2)NCCN2CCOCC2)C(C)=O)sc1-c1nc2ccncc2s1 [Example 33, N-(4-(methoxymethyl)-5-(thiazolo[5,4-c]pyridin-2-yl)thiazol-2-yl)-N—((S)-2-(2-morpholinoethylamino)-3-(4-(trifluoromethyl)phenyl)propyl)acetamide]"
12,< 50 nM,"N[C@H](CNc1ncc(-c2ccc3c(c2)CC(=O)N3)s1)Cc1ccc(C(F)(F)F)cc1 [Example 42, 5-(2-((S)-2-amino-3-(4-(trifluoromethyl)phenyl)propylamino)thiazol-5-yl)indolin-2-one]"
13,< 50 nM,"N[C@H](CNc1ncc(-c2cnc3c(c2)CC(=O)N3)s1)Cc1ccc(C(F)(F)F)cc1 [Example 226, 5-(2-((S)-2-amino-3-(4-(trifluoromethyl)phenyl)propylamino)thiazol-5-yl)-1H-pyrrolo[2,3-b]pyridin-2(3H)-one]"
14,1000 to 10000 nM,"N[C@H](CNc1nc(-c2ccccn2)c(-c2nc3ccncc3s2)s1)Cc1ccc(C(F)(F)F)cc1 [Example 60, N—((S)-2-amino-3-(4-(trifluoromethyl)phenyl)propyl)-4-(pyridin-2-yl)-5-(thiazolo[5,4-c]pyridin-2-yl)thiazol-2-amine]"
15,1000 to 10000 nM,"COCc1nc(NC[C@@H](N)Cc2cccc(Cl)c2)sc1-c1nc2ccncc2s1 [Example 18, N—((S)-2-amino-3-(3-chlorophenyl)propyl)-4-(methoxymethyl)-5-(thiazolo[5,4-c]pyridin-2-yl)thiazol-2-amine]"
16,50 to 1000 nM,"N[C@H](CNc1ncc(-c2cc3oc(=O)[nH]c3cc2F)s1)Cc1ccc(C(F)(F)F)nc1 [Example 219, 6-(2-((S)-2-amino-3-(6-(trifluoromethyl)pyridin-3-yl)propylamino)thiazol-5-yl)-5-fluorobenzo[d]oxazol-2(3H)-one]"
17,< 50 nM,"COc1cc(C[C@H](N)CNc2ncc(-c3ccc4[nH]c(=O)oc4c3)s2)ccc1C(F)(F)F [Example 207, 6-(2-((S)-2-amino-3-(3-methoxy-4-(trifluoromethyl)phenyl)propylamino)thiazol-5-yl)benzo[d]oxazol-2(3H)-one]"
18,< 50 nM,"C[C@@H](c1ccc(C(F)(F)F)cc1)[C@H](N)CNc1ncc(-c2ccc3[nH]c(=O)oc3c2)s1 [Example 109, 6-(2-((2S,3S)-2-Amino-3-(4-(trifluoromethyl)phenyl)butylamino)-thiazol-5-yl)benzo[d]oxazol-2(3H)-one]"

row,IC50,Compound
1,50 to 1000 nM,"N[C@H](CNc1ncc(-c2cnc3c(c2)CC(=O)N3)s1)Cc1ccc(C(F)(F)F)nc1 [Example 227, 5-(2-((S)-2-amino-3-(6-(trifluoromethyl)pyridin-3-yl)propylamino)thiazol-5-yl)-1H-pyrrolo[2,3-b]pyridin-2(3H)-one]"
2,50 to 1000 nM,"Cc1nc(NC[C@@H](N)Cc2ccc(C(F)(F)F)cc2)sc1-c1nc2ccncc2s1 [Example 24, N—((S)-2-amino-3-(4-(trifluoromethyl)phenyl)propyl)-4-methyl-5-(thiazolo[5,4-c]pyridin-2-yl)thiazol-2-amine]"
3,1000 to 10000 nM,"Cn1ncc2ccc(-c3cnc(NC[C@@H](N)Cc4ccc(C(F)(F)F)cc4)s3)cc21 [Example 167, N—((S)-2-amino-3-(4-(trifluoromethyl)phenyl)propyl)-5-(1-methyl-1H-indazol-6-yl)thiazol-2-amine]"
4,< 50 nM,"C[C@@H](Nc1ncc(-c2ccc3c(c2)CC(=O)N3)s1)[C@@H](N)Cc1ccc(C(F)(F)F)cc1 [Example 229, 5-(2-((2R,3S)-3-amino-4-(4-(trifluoromethyl)phenyl)butan-2-ylamino)thiazol-5-yl)indolin-2-one]"
5,50 to 1000 nM,"Cc1ccc(C[C@H](N)CNc2ncc(-c3ccc4c(c3)CC(=O)N4)s2)cc1 [Example 116, 5-(2-((S)-2-Amino-3-p-tolylpropylamino)thiazol-5-yl)indolin-2-one]"
6,< 50 nM,"N[C@H](CNc1ncc(-c2ccc3c(c2)CC(=O)N3)s1)[C@@H](CO)c1ccc(C(F)(F)F)cc1 [Example 158, 5-(2-((2S,3S)-2-amino-4-hydroxy-3-(4-(trifluoromethyl)phenyl)butylamino)thiazol-5-yl)indolin-2-one]"
7,1000 to 10000 nM,"N[C@H](CNc1nc(C(F)(F)CO)c(-c2ccc3c(c2)CC(=O)N3)s1)Cc1ccc(C(F)(F)F)cc1 [Example 133, 5-(2-((S)-2-Amino-3-(4-(trifluoromethyl)phenyl)propylamino)-4-(1,1-difluoro-2-hydroxyethyl)thiazol-5-yl)indolin-2-one]"
8,50 to 1000 nM,"Cn1c(=O)[nH]c2ccc(-c3cnc(NC[C@@H](N)Cc4cccc(C(F)(F)F)c4)s3)cc21 [Example 82, 6-(2-((S)-2-Amino-3-(3-(trifluoromethyl)phenyl)-propylamino)thiazol-5-yl)-1-methyl-1H-benzo[d]imidazol-2(3H)-one]"
9,< 50 nM,"N[C@H](CNc1ncc(-c2ccc3c(c2)CC(=O)N3)s1)Cc1ccc(Cl)cc1 [Example 54, 5-(2-((S)-2-Amino-3-(4-chlorophenyl)propylamino)thiazol-5-yl)indolin-2-one]"
10,1000 to 10000 nM,"C[C@H](Nc1ncc(-c2ccc3c(c2)CC(=O)N3)s1)[C@@H](N)Cc1ccc(C(F)(F)F)cc1 [Example 234, 5-(2-((2S,3S)-3-amino-4-(4-(trifluoromethyl)phenyl)butan-2-ylamino)thiazol-5-yl)indolin-2-one]"
11,1000 to 10000 nM,COCOC(c1ccc(C(F)(F)F)cc1)C(N)CNc1ncc(-c2ccc3c(c2)CC(=O)N3)s1 (centres unmarked) [Example 244]
12,< 50 nM,"N[C@H](CNc1ncc(-c2ccc3c(c2)CC(=O)N3)s1)Cc1ccc(C(F)(F)F)c(F)c1 [Example 185, 5-(2-((S)-2-amino-3-(3-fluoro-4-(trifluoromethyl)phenyl)propylamino)thiazol-5-yl)indolin-2-one]"
13,50 to 1000 nM,"N[C@H](CNc1ncc(-c2ccc3c(c2)CC(=O)N3)s1)Cc1ccc(F)c(F)c1 [Example 126, 5-(2-((S)-2-Amino-3-(3,4-difluorophenyl)propylamino)thiazol-5-yl)indolin-2-one]"
14,50 to 1000 nM,"COCc1nc(NC[C@H](Cc2ccc(C(F)(F)F)cc2)NCCN2CCOCC2)sc1-c1nc2ccncc2s1 [Example 34, 4-(Methoxymethyl)-N—((S)-2-(2-morpholinoethylamino)-3-(4-(trifluoromethyl)phenyl)propyl)-5-(thiazolo[5,4-c]pyridin-2-yl)thiazol-2-amine]"
15,50 to 1000 nM,"N[C@H](CNc1ncc(-c2ccc3cnccc3c2)s1)Cc1c[nH]c2ccccc12 [Example 5, N—((S)-2-amino-3-(1H-indol-3-yl)propyl)-5-(isoquinolin-6-yl)thiazol-2-amine]"
16,< 50 nM,"N[C@H](CNc1nc(CO)c(-c2ccc3[nH]ncc3c2)s1)Cc1ccc(C(F)(F)F)cc1 [Example 12, (2-((S)-2-amino-3-(4-(trifluoromethyl)phenyl)propylamino)-5-(1H-indazol-5-yl)thiazol-4-yl)methanol]"
17,50 to 1000 nM,"N[C@H](CNc1ncc(-c2cc3c(cc2F)NC(=O)C3)s1)Cc1ccc(C(F)(F)F)nc1 [Example 215, 5-(2-((S)-2-amino-3-(6-(trifluoromethyl)pyridin-3-yl)propylamino)thiazol-5-yl)-6-fluoroindolin-2-one]"
